Consider two compounds from patent US20240294467A1, “USP9X Inhibitors” (ProDeg, LLC, priority 2021, published 2024).

The target of assay [1] is T1, USP9X (Homo sapiens (Human), UniProt Q93008). The experiment in a line: USP9X enzyme activity assay, ubiquitin-rhodamine110 substrate.
Target sequence in this assay (Q93008 whole entry): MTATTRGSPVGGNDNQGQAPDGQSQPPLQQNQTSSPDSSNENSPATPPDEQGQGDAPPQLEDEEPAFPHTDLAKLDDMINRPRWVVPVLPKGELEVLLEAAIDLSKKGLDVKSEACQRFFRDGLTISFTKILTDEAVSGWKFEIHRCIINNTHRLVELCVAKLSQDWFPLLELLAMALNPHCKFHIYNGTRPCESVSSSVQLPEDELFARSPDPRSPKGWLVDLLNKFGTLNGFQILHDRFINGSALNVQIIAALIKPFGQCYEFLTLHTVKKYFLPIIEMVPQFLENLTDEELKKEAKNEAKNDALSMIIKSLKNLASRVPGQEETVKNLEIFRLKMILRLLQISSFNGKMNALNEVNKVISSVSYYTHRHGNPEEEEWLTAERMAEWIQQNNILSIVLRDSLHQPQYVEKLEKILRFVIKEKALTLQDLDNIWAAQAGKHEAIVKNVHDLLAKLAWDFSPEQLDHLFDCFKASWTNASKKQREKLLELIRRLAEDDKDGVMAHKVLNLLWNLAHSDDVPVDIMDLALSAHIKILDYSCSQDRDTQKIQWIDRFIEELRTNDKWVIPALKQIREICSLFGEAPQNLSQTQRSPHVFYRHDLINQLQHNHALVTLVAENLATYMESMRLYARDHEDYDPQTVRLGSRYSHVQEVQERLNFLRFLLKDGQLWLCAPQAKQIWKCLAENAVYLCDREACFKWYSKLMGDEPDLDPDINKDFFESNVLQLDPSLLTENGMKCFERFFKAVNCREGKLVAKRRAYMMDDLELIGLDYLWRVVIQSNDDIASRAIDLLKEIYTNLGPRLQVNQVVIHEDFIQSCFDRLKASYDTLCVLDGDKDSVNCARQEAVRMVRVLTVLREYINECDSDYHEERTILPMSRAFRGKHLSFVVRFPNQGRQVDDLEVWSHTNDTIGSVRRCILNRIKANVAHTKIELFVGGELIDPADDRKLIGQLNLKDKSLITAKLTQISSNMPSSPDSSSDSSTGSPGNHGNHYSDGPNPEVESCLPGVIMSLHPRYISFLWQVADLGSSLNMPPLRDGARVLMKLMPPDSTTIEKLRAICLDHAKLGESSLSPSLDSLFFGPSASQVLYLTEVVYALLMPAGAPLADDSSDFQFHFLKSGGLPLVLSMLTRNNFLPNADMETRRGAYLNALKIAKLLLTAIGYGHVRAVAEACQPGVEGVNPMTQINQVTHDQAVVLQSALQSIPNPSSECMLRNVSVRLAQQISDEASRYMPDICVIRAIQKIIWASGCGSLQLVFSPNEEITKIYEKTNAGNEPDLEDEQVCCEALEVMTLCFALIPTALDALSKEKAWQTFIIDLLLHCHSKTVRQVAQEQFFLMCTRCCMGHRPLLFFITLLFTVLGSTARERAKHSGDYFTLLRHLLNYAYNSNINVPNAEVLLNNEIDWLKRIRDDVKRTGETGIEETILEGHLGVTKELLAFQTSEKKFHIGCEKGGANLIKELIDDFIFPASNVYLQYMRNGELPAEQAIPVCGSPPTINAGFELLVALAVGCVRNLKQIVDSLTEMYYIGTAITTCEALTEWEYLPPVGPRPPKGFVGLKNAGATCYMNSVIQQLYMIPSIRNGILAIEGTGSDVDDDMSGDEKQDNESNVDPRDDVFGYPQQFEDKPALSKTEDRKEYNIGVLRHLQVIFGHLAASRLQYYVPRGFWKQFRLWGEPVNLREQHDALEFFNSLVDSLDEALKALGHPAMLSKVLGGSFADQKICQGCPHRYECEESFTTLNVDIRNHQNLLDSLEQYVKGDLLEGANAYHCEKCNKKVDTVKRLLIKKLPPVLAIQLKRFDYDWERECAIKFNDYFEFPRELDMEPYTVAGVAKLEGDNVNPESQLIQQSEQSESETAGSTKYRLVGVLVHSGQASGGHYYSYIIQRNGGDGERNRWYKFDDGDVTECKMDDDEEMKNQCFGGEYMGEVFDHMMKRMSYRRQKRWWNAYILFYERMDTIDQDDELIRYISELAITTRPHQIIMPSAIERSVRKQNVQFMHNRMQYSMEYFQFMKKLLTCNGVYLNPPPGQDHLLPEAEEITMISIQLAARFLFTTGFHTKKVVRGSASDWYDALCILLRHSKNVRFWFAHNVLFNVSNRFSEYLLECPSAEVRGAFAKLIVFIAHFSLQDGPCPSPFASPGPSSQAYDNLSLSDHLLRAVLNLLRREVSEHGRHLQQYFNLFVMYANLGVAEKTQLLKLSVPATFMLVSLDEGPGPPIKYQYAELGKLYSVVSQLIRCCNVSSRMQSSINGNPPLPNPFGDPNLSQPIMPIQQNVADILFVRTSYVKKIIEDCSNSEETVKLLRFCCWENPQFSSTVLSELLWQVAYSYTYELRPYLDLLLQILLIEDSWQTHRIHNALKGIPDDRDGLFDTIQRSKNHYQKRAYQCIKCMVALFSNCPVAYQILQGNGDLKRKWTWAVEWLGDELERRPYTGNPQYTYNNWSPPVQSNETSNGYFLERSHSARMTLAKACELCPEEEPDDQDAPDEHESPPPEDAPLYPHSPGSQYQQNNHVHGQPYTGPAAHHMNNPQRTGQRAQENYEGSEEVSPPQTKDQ
Assay [2] concerns the target T1, USP9X. Nature of the assay: Steady-state enzyme inhibition kinetics of USP9X. In kind it is biochemical. An excerpt:
The data were fit to a general model for enzyme inhibition (FIG. 1E) so the values of the parameters determined from the assays specified the mode of inhibition. For example, in the case of α=1 and β=0, it corresponded to purely non-competitive inhibition. For α=infinity and p=1, it corresponded to purely competitive inhibition. The values of all the parameters, KS, KI, kcat, α, and β could be determined from the steady state measurements. The enzyme reactions were set up as described in the Inhibiting the catalytic activity of USP9X section. The concentration of the substrate ubqiutin-rhodamine110 was varied. The initial rates of the reactions were determined at several concentrations of the inhibitor Compound 2A. In order to determine the values of the parameters KS and kcat, the reaction rates in the absence of the inhibitor Compound 2A, the initial reaction rate data were fit to the standard Michaelis-Menten equation v=Vmax [S]/(Km+[S]). The values of α and β could then be determined by fitting the initial rate data of the enzyme reaction at various concentrations of Compound 2A to a modified version of the Michaelis-Menten equation, designating both Vmax and KS apparent to distinguish the apparent values of the parameters determined from these plots to the true values for these parameters determined from the steady state kinetics in the absence of Compound 2A. The values of α and β could be determined from the variation of the slopes and intercepts of the series of double reciprocal plots of 1/v versus 1/[S] for each concentration of Compound 2A. […] The two values determined for KI were from the two different plots.
The two values for KI were determined by two different methods for determining this parameter from the kinetic data: 1 represented a value determined from the slope of the 1/A intercept vs 1/[I] plot; 2 represented a value determined from the y intercept of the 1/A slope vs 1/[I] plot. […] Only the values of the parameters varied for the compounds.
Target sequence in this assay (Q93008 whole entry): as above

Assay [3] concerns carbonic anhydrase. The experiment in a line: Biacore binding to immobilized carbonic anhydrase (non-specific binding control).
In assay [4] the target is T1, USP9X. The experiment in a line: Biacore T200 surface plasmon resonance binding to immobilized USP9X. The note with it: 25° C. From the text: The terms “inhibit” as used herein with respect to the activity of the USP9X inhibitor, refer to the ability to substantially antagonize, prohibit, prevent, restrain, slow, disrupt, alter, eliminate, stop, or reverse the progression or severity of, for example, the catalytic activity of a DUB such as USP9X, the survival or proliferation of a cancer cell, or a disease or condition associated with USP9X. […] In some embodiments, the compounds as described can inhibit USP9X by binding to an active site of USP9X. […] The binding activity is determined with a standard binding assay, such as a Biacore surface plasmon resonance instrument. […] The binding affinity KD is determined using a Biacore T200 instrument (GE Healthcare, Biacore). Ubiquitin aldehyde can be used as a reference in analyzing the inhibition results determined via Biacore. […]
USP9X was immobilized on a chip for surface plasmon resonance measurements via Biacore T200. Solutions of compound Compound 2A at various concentrations were flowed over the immobilized USP9X and the change in refractive index was monitored. […] The values of the maximum response for each concentration of Compound 2A were plotted and were consistent with a binding of the compound to a single site on USP9X with a dissociation equilibrium constant of 1.9 μM in reasonable agreement with value determined from the kinetic association and dissociation rates.
Target sequence in this assay (Q93008 whole entry): as above

The subject of assay [5] is 66 cancer cell lines. The experiment in a line: ONCOLINES Profiler, whole panel. In kind it is cell-based. The conditions noted are these: in 3 of 66 cell lines. An excerpt:
The sensitivities of multiple cancer cells can be determined by screening the compounds on a cancer cell line panel, such as an ONCOLINES™ Profiler (Netherlands Translational Research Center) assayed with various tumor cell lines. For more information on ONCOLINES™ methods, see https://www.oncolines.com/oncolines/oncolines-explained-facts/. […] For example, Compound 7A inhibited the proliferation of 57 of the 66 cell lines being tested. […] “A tumor cell line sensitive to the compounds” is referred to that the proliferation of a tumor cell line, when contacted with the compounds, is inhibited by at least 50%, at least 60%, at least 70%, at least 80%, at least 85%, at least 90%, at least 91%, at least 92%, at least 93%, at least 94%, at least 95%, at least 96%, at least 97%, at least 98%, at least 99%, or 100%.
(§1) The compounds were profiled on an ONCOLINES™ Profiler (Netherlands Translational Research Center) assayed with 66 cancer cell lines to determine if they were capable of inhibiting the proliferation of these cancer cells.
(§2) To further evaluate potency of the compounds, they were compared with the USP9X inhibitor WP 1130 by screening both the compounds and WP1130 on a 66-cancer cell line panel ONCOLINES™ Profiler.

Assay [6] concerns BT-549. The experiment in a line: ONCOLINES Profiler proliferation. Format: cell-based, human. The note with it: BT-549, breast ductal carcinoma.
From the text: as §1, §2

The target of assay [7] is USP5 (Homo sapiens (Human), UniProt P45974). The conditions noted are these: cited from earlier work.
USP5, sequence (P45974 whole entry, species assumed): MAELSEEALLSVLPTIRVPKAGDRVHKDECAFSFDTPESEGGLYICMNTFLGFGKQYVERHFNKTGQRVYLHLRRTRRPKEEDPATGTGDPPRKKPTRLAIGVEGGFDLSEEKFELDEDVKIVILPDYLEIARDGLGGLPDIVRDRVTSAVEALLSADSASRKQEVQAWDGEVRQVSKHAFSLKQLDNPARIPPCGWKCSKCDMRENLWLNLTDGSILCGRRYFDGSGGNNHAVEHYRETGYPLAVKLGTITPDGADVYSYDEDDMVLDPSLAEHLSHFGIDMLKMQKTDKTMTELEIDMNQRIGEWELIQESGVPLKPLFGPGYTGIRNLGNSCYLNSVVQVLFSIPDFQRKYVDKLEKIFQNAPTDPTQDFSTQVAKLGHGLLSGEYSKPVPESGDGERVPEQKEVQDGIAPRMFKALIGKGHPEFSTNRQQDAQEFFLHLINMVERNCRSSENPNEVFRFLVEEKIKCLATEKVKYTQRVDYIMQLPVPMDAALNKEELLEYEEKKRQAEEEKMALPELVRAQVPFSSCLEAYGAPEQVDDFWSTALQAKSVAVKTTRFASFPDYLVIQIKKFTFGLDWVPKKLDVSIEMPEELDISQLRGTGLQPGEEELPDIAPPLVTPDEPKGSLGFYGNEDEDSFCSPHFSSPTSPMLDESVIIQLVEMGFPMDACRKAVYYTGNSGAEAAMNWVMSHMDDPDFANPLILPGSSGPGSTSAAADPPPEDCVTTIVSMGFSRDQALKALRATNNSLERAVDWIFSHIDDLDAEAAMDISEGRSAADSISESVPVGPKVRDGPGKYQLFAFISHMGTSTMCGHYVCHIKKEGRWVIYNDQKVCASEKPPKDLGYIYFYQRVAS
The target of assay [8] is T1, USP9X. The conditions noted are these: cited from earlier work.
Target sequence in this assay (Q93008 whole entry, species assumed): as the sequence (Q93008 whole entry) above
For assay [9], the target named is UCH-L1 (Homo sapiens (Human), UniProt P09936). The conditions noted are these: cited from earlier work.
UCH-L1, sequence (P09936 whole entry, species assumed): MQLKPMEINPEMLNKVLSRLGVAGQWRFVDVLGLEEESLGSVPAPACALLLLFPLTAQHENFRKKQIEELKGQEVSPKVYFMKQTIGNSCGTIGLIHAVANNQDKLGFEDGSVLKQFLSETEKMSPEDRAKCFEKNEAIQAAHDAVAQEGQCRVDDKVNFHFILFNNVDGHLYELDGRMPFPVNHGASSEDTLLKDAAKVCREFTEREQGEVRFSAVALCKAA
Assay [10] has as its target USP14 (Homo sapiens (Human), UniProt P54578). The note with it: cited from earlier work.
Assay [11] concerns the target UCH37 (Homo sapiens (Human), UniProt Q9Y5K5). The conditions noted are these: cited from earlier work.
The test system of assay [12] is BT-20. The experiment in a line: ONCOLINES Profiler proliferation. The conditions noted are these: BT-20, breast carcinoma. Format: cell-based.
From the text: as §1, §2

The subject of assay [13] is RKO. The experiment in a line: ONCOLINES Profiler proliferation. In kind it is cell-based. The note with it: colon carcinoma.
From the text: as §1, §2

Assay [14] relates to Hs 57BT. Nature of the assay: ONCOLINES Profiler proliferation. Format: cell-based. The conditions noted are these: Hs 57BT (Hs578T), breast carcinoma.
From the text: as §1, §2

For assay [15], the system named is LoVo. Nature of the assay: ONCOLINES Profiler proliferation. Format: cell-based. The note with it: colorectal adenocarcinoma.
From the text: as §1, §2

Assay [16] concerns DU 145. The experiment in a line: ONCOLINES Profiler proliferation. Format: cell-based. The note with it: DU 145, prostate carcinoma.
From the text: as §1, §2

The test system of assay [17] is A-172. The experiment in a line: ONCOLINES Profiler proliferation. Format: cell-based. The note with it: A-172, glioblastoma.
From the text: as §1, §2

In assay [18] the test system is H82. The experiment in a line: ONCOLINES Profiler proliferation. The note with it: H82, small cell lung. In kind it is cell-based.
From the text: as §1, §2

The subject of assay [19] is A549. Nature of the assay: ONCOLINES Profiler proliferation. Format: cell-based. The conditions noted are these: A549, lung.
From the text: as §1, §2

In assay [20] the test system is RPMI-7951. Nature of the assay: ONCOLINES Profiler proliferation. In kind it is cell-based. The note with it: RPMI-7951, malignant melanoma.
From the text: as §1, §2

For assay [21], the system named is MOLT-4. The experiment in a line: ONCOLINES Profiler proliferation. In kind it is cell-based. The conditions noted are these: MOLT-4, acute lymphoblastic leukemia.
From the text: as §1, §2

In assay [22] the test system is CCRF-CEM. Nature of the assay: ONCOLINES Profiler proliferation. Format: cell-based. The note with it: acute lymphoblastic leukemia.
From the text: as §1, §2

Molecules are shown by their SMILES. pIC50, pKd: −log10 of the molar value. Like-named read-outs stand apart in the source and are kept apart here.

USP14, sequence (P54578 whole entry, species assumed): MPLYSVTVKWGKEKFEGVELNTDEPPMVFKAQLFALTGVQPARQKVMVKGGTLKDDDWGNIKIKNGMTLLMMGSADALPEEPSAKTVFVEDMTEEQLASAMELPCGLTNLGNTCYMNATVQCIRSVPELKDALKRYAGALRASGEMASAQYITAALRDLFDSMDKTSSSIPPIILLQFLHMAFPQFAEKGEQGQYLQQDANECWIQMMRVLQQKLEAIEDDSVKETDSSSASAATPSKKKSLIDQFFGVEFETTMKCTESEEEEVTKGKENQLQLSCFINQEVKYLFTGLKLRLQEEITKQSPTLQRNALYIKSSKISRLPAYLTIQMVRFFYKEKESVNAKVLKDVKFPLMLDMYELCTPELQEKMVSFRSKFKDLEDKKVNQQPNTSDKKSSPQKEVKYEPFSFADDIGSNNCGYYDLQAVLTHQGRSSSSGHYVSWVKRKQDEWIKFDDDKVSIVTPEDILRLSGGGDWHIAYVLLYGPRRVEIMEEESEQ
UCH37, sequence (Q9Y5K5 whole entry, species assumed): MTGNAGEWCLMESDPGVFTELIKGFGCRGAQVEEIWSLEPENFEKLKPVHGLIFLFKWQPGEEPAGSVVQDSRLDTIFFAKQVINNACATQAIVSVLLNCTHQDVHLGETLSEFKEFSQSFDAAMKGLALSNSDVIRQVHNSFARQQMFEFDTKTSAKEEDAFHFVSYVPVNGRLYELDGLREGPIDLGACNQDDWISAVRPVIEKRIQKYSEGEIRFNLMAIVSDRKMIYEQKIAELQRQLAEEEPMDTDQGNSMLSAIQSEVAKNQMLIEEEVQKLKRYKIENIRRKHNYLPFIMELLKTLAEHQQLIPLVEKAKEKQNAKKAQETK

For `CC(C)(C)C[C@@H]1NC(=O)c2cccc(c2)CNC(=O)c2ccc(cc2)OCCNC(=O)CC(C)(C)CC(=O)N[C@H](C(=O)O)Cc2ccc(cc2)NC1=O` [Compound 2A], the “reduction of USP9X activity” value in assay [1] (higher concentrations of compound (>10 μM)) is “approximately 60%”. In addition, in assay [1] (read-out: IC50 for the inhibition of USP9X activity, ubiquitin-rhodamine110 substrate), the pIC50 is 6.41. Also, the IC50 in [1] (read-out: USP9X IC50 nM, Table 2) is 390 nM. Besides, in assay [2], the “KS” value was determined as 0.95 µM, the “VMAX RFU/min” value worked out at 310 RFU/min, the mode of inhibition entry was “hyperbolic mixed inhibition” and the α came to 1.73. Further, in assay [2], the β is 0.71. In addition, the Ki in [2] (from the slope of the 1/Δ intercept vs 1/[I] plot, read-out: KI, nM (1)) was 120 nM. Further, the Ki in assay [2] (from the y intercept of the 1/Δ slope vs 1/[I] plot, read-out: KI, nM (2)) was 290 nM. In addition, the “binding to immobilized carbonic anhydrase” value in assay [3] is on record as “did not bind”. The pKd in assay [4] (read-out: dissociation equilibrium constant from maximum response vs concentration, single site) is 5.72. In addition, the pKd in [4] (read-out: equilibrium dissociation constant KD from ratio of dissociation to association rate constant) is 6.32.
On to `CCC[C@H](NC(=O)/C(C#N)=C/c1cccc(Br)n1)c1ccccc1` [WP1130, reference compound], for which the “fold more potent than Compound 7A” value in [5] is “above 4 fold”. The pIC50 in assay [6] is 5.27; in assay [12] it was 5.29; in assay [13], 5.37; in [14] it was 5.20; in assay [15] it was 5.26; in [16], 5.02. In addition, the pIC50 in [17] was 5.25; in [18] it was 5.18; in [19], 4.85; in assay [20] it was 5.38; in assay [21], 5.40; in assay [22], 5.36. For the same compound, the “inhibits USP5” value in [7] is “inhibited”. The “inhibits USP9X” value in assay [8] was “inhibited”. Also, the “inhibits UCH-L1” value in assay [9] is listed as “inhibited”. Further, in [10], the “inhibits USP14” value is “inhibited”. Further, the “inhibits UCH37” value in [11] was “inhibited”.
